According to ChEMBL document CHEMBL1201862, “PubChem BioAssay data set” (2004):
Each block holds one compound with its values, some of them ahead of it. Calls of active or inactive are those of the source.

Key:
Assay type in all cases: functional
[1] = biological target: T1, Neuropeptides B/W receptor type 1 (Homo sapiens, UniProt P48145); assay: GPR7 antagonist potency, late-stage follow-up, cell-based, fluorescence, dose response, set 5 (AID 588566)
T1 sequence (P48145 whole entry): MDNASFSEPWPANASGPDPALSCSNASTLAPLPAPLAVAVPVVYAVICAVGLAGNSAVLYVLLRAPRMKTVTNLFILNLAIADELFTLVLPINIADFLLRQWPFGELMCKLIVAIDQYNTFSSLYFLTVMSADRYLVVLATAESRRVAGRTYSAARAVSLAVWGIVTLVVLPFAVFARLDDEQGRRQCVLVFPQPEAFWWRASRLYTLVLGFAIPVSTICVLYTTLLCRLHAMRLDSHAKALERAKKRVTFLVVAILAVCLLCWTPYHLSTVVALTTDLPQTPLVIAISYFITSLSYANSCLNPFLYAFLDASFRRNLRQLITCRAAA

[2] = biological target: Melanin-concentrating hormone receptor 1 (Homo sapiens, UniProt Q99705); assay: Late-stage fluorescence-based counterscreen for antagonists of the G-protein coupled receptor 7 (GPR7): cell-based dose response assay to identify antagonists of the melanin-concentrating hormone receptor 1 (MCHR1) Set 5.
Melanin-concentrating hormone receptor 1, sequence (Q99705 whole entry): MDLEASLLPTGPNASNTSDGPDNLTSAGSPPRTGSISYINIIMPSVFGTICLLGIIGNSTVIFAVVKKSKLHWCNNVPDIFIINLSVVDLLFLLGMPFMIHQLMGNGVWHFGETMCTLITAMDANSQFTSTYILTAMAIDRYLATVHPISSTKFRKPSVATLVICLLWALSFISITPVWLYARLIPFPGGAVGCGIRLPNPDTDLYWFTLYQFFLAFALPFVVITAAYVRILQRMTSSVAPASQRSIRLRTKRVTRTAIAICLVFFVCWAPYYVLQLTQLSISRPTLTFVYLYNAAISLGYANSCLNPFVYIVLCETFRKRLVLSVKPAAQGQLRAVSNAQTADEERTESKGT

[3] = biological target: T2, Apoptotic protease-activating factor 1 (Homo sapiens, UniProt O14727); assay: SAR analysis of small molecule Activators of Apaf-1 in a Fluorescent assay.; settings: read-out: EC50_Mean;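 also: caspase-3 cleavage of fluorogenic Rh110 DEVD substrate downstream of apoptosome activation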
T2 sequence (O14727 whole entry): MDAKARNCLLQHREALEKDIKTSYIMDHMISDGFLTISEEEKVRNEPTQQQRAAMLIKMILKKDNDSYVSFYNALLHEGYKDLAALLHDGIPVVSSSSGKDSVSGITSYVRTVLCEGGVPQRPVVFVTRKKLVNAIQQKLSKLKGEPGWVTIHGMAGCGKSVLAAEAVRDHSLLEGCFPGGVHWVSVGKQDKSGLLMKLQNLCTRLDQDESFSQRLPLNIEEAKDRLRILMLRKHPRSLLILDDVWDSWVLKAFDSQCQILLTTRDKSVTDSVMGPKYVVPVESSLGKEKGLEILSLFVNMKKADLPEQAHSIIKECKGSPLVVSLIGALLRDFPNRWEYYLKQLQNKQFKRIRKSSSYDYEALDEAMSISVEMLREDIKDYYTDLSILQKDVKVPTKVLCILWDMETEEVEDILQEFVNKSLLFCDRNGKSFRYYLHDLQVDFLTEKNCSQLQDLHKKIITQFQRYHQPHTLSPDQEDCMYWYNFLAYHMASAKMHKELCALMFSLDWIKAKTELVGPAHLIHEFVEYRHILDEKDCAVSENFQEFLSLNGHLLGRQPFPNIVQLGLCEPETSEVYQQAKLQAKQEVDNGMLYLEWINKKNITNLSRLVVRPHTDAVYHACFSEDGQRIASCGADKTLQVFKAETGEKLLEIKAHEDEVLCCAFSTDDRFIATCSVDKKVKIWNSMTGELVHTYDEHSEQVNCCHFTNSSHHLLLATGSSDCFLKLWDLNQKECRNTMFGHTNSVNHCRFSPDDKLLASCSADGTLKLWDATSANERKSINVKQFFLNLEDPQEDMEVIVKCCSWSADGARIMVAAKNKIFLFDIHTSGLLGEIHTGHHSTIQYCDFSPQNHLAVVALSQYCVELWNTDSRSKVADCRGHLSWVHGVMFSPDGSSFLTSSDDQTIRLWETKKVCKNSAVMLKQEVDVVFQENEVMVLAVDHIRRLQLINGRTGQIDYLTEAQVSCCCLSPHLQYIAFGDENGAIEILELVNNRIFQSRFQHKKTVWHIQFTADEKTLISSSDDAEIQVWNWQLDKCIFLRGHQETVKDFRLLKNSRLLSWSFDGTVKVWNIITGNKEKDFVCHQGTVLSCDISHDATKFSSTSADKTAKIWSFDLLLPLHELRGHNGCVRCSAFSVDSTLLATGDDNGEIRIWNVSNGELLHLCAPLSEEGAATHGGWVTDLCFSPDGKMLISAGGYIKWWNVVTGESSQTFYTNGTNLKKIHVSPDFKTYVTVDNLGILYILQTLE

Interleukin-8 [4] = biological target: T3, Interleukin-8 (Homo sapiens, UniProt P10145); assay: Dose Response confirmation of uHTS small molecule hits for cystic fibrosis induced NFkb Inhibitors in a TNFa-induced IL8 counterscreen.; settings: read-out: IC50_Mean
T3 sequence (P10145 whole entry): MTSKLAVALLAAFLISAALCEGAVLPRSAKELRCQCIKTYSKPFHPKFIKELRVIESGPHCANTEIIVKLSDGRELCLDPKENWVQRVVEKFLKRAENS

Interleukin-8 [5] = biological target: T3, Interleukin-8; assay: Dose Response confirmation of uHTS small molecule hits for cystic fibrosis induced NFkb Inhibitors in a PAF-induced IL8 counterscreen.; settings: read-out: IC50_Mean
[6] = biological target: T4, Low molecular weight phosphotyrosine protein phosphatase (Homo sapiens, UniProt P24666); settings: read-out: IC50_Mean
T4 sequence (P24666 whole entry): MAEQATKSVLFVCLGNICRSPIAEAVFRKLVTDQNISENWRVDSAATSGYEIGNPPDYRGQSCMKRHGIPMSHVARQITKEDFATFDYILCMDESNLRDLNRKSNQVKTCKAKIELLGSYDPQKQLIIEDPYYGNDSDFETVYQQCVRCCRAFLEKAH

[7] = biological target: T5, Tyrosine-protein phosphatase non-receptor type 22 (Homo sapiens, UniProt Q9Y2R2); assay: LYP phosphatase inhibition for selectivity, dose response, selectivity assay for LMPTP inhibitor project, biochemical, fluorescence, LYP catalytic domain (AID 652006); settings: read-out: IC50_Mean
T5 sequence (Q9Y2R2 whole entry): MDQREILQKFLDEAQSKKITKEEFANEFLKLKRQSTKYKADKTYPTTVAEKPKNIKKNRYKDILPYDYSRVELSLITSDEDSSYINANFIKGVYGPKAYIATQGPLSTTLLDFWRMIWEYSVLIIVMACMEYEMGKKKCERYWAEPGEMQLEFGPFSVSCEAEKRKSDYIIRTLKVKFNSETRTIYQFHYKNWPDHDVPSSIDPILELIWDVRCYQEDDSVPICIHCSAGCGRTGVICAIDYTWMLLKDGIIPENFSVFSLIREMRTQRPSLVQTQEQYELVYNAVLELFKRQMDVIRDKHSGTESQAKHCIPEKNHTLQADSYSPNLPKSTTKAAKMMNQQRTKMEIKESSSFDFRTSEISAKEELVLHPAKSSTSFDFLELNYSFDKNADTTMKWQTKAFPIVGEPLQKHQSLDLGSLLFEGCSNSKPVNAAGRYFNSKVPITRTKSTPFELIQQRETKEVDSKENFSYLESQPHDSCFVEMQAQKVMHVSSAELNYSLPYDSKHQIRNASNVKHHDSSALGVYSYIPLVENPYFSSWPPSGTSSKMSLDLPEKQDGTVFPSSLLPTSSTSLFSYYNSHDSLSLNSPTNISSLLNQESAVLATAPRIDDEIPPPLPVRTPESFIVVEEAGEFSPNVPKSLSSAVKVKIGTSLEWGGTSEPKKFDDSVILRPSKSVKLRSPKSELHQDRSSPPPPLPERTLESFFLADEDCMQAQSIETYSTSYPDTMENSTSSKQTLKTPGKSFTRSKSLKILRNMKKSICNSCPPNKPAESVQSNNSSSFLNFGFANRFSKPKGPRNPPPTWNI

[8] = biological target: T4, Low molecular weight phosphotyrosine protein phosphatase; settings: read-out: IC50_Mean; remark: listed apart in the source

SMILES: CCOC(=O)C(C(=O)OCC)c1c(Cl)cnn(Cc2cccc3ccccc23)c1=O
- IC50 [1]: 3.77 µM (active)
- IC50 [2]: 4.03 µM (active)

SMILES: O=C(N/N=C\C=C\c1ccc(Br)cc1)c1ccc2c(c1)OCO2
- IC50 [6]: 11.6 µM (active)
- IC50 [7]: 23.5 µM (inactive)
- IC50 [8]: 7.43 µM (active)

Now from value to compound:

- IC50 [1]: 8.01 µM (active)
- IC50 [2]: 9.16 µM (active)
SMILES: COc1ccc(Oc2c(Cl)cnn(C(C)c3ccccc3C)c2=O)cc1 (stereo not given)

- EC50 [3]: > 100 µM (inactive)
SMILES: CC1(C)CC2CC(C)(CN2C(=O)C2CC(c3ccc(F)cc3)=NO2)C1 (stereo not given)

- IC50 (Interleukin-8 [4]): > 79 µM (inactive)
- IC50 (Interleukin-8 [5]): 12.4 µM (inactive)
SMILES: c1ccc2c(-c3ccc4nncn4c3)cncc2c1
